Laboratory results taken from patent publication US20260027116A1, “Methods of Treating Chronic Graft-Versus-Host Disease Following Allogeneic Hematopoietic Stem Cell Transplantation” (Kadmon Corporation, LLC, priority 2022, published 2026).

Test system: patients with cGVHD
Conditions: Cohort 2 200 mg BID
Description: All responses were assessed by the investigators.
Reported Adverse Events. […] All-cause mortality data collected during the study were assessed for all enrolled participants. Disease progression related death was not reported as AE.
Number of Participants With Treatment-emergent Adverse Events (TEAEs), and Treatment-emergent Serious Adverse Events (TESAEs). […] TEAEs included both SAEs and non-SAEs. […] Analysis was performed on safety population which included all participants who received at least 1 dose of study medication.

For `CC(C)NC(=O)COc1cccc(-c2nc(Nc3ccc4[nH]ncc4c3)c3ccccc3n2)c1` [Belumosudil, 2-{3-[4-(1H-indazol-5-ylamino)-2-quinazolinyl]phenoxy}-N-(propan-2-yl) acetamide], the “Macular degeneration: Affected/At Risk (%)” value was 1/16 (6.25%), the “Migraine: # Events” value was 1 and the “Migraine: Affected/At Risk (%)” value was 1/16 (6.25%). The “Muscle spasms: # Events” value was 0, the “Muscle spasms: Affected/At Risk (%)” value was 0/16 (0%) and the “Muscle spasticity: # Events” value was 0. The “Muscle spasticity: Affected/At Risk (%)” value was 0/16 (0%), the “Muscular weakness: # Events” value was 1 and the “Muscular weakness: Affected/At Risk (%)” value was 1/16 (6.25%). For the same compound, the “Musculoskeletal chest pain: # Events” value was 0, the “Musculoskeletal chest pain: Affected/At Risk (%)” value was 0/16 (0%) and the “Myalgia: # Events” value was 1. The “Myalgia: Affected/At Risk (%)” value was 1/16 (6.25%), the “Nail disorder: # Events” value was 0 and the “Nail disorder: Affected/At Risk (%)” value was 0/16 (0%). For the same compound, the “Nasal congestion: Affected/At Risk (%)” value was 0/16 (0%), the “Nausea: # Events” value was 6 and the “Nausea: Affected/At Risk (%)” value was 4/16 (25%). For the same compound, the “Neck pain: # Events” value was 0, the “Neck pain: Affected/At Risk (%)” value was 0/16 (0%) and the “Nephrotic syndrome: # Events” value was 1. For the same compound, the “Nephrotic syndrome: Affected/At Risk (%)” value was 1/16 (6.25%), the “Neuropathy peripheral: # Events” value was 1 and the “Neuropathy peripheral: Affected/At Risk (%)” value was 1/16 (6.25%). The “Neutrophil count decreased: # Events” value was 0, the “Neutrophil count decreased: Affected/At Risk (%)” value was 0/16 (0%) and the “Nocturia: # Events” value was 0. For the same compound, the “Nocturia: Affected/At Risk (%)” value was 0/16 (0%), the “Non-cardiac chest pain: # Events” value was 3 and the “Non-cardiac chest pain: Affected/At Risk (%)” value was 3/16 (18.75%). For the same compound, the “Obesity: # Events” value was 0, the “Obesity: Affected/At Risk (%)” value was 0/16 (0%) and the “Oedema peripheral: # Events” value was 5. The “Oedema peripheral: Affected/At Risk (%)” value was 4/16 (25%), the “Oedema: # Events” value was 1 and the “Oedema: Affected/At Risk (%)” value was 1/16 (6.25%). The “Oesophageal ulcer: # Events” value was 1, the “Oesophageal ulcer: Affected/At Risk (%)” value was 1/16 (6.25%) and the “Oral candidiasis: # Events” value was 1. For the same compound, the “Oral candidiasis: Affected/At Risk (%)” value was 1/16 (6.25%), the “Oropharyngeal pain: # Events” value was 0 and the “Oropharyngeal pain: Affected/At Risk (%)” value was 0/16 (0%). The “Orthopnoea: # Events” value was 0, the “Orthopnoea: Affected/At Risk (%)” value was 0/16 (0%) and the “Osteonecrosis: # Events” value was 0. The “Osteonecrosis: Affected/At Risk (%)” value was 0/16 (0%), the “Osteopenia: # Events” value was 1 and the “Osteopenia: Affected/At Risk (%)” value was 1/16 (6.25%). The “Osteoporosis: # Events” value was 1, the “Osteoporosis: Affected/At Risk (%)” value was 1/16 (6.25%) and the “Overdose: # Events” value was 0. For the same compound, the “Overdose: Affected/At Risk (%)” value was 0/16 (0%), the “Pain in extremity: # Events” value was 3 and the “Pain in extremity: Affected/At Risk (%)” value was 2/16 (12.5%). The “Pain: # Events” value was 0, the “Pain: Affected/At Risk (%)” value was 0/16 (0%) and the “Palpitations: # Events” value was 0. The “Palpitations: Affected/At Risk (%)” value was 0/16 (0%), the “Paraesthesia: # Events” value was 1 and the “Paraesthesia: Affected/At Risk (%)” value was 1/16 (6.25%). For the same compound, the “Pericardial effusion: # Events” value was 0, the “Pericardial effusion: Affected/At Risk (%)” value was 0/16 (0%) and the “Peripheral coldness: # Events” value was 0. The “Peripheral coldness: Affected/At Risk (%)” value was 0/16 (0%), the “Peripheral sensory neuropathy: # Events” value was 1 and the “Peripheral sensory neuropathy: Affected/At Risk (%)” value was 1/16 (6.25%). The “Phlebitis: # Events” value was 1, the “Phlebitis: Affected/At Risk (%)” value was 1/16 (6.25%) and the “Photophobia: # Events” value was 1. For the same compound, the “Photophobia: Affected/At Risk (%)” value was 1/16 (6.25%), the “Platelet count decreased: # Events” value was 0 and the “Platelet count decreased: Affected/At Risk (%)” value was 0/16 (0%). The “Pleural effusion: # Events” value was 0, the “Pleural effusion: Affected/At Risk (%)” value was 0/16 (0%) and the “Pneumonia respiratory syncytial viral: # Events” value was 1. For the same compound, the “Pneumonia respiratory syncytial viral: Affected/At Risk (%)” value was 1/16 (6.25%), the “Pneumonia: # Events” value was 3 and the “Pneumonia: Affected/At Risk (%)” value was 3/16 (18.75%). For the same compound, the “Pollakiuria: # Events” value was 0, the “Pollakiuria: Affected/At Risk (%)” value was 0/16 (0%) and the “Presyncope: # Events” value was 3. For the same compound, the “Presyncope: Affected/At Risk (%)” value was 3/16 (18.75%), the “Productive cough: # Events” value was 7 and the “Productive cough: Affected/At Risk (%)” value was 2/16 (12.5%). For the same compound, the “Proteinuria: # Events” value was 1, the “Proteinuria: Affected/At Risk (%)” value was 1/16 (6.25%) and the “Pruritus: # Events” value was 4. For the same compound, the “Pruritus: Affected/At Risk (%)” value was 2/16 (12.5%), the “Pseudomonas infection: # Events” value was 2 and the “Pseudomonas infection: Affected/At Risk (%)” value was 1/16 (6.25%). The “Pulmonary mass: # Events” value was 1, the “Pulmonary mass: Affected/At Risk (%)” value was 1/16 (6.25%) and the “Pyrexia: # Events” value was 6. For the same compound, the “Pyrexia: Affected/At Risk (%)” value was 3/16 (18.75%), the “Rash erythematous: # Events” value was 1 and the “Rash erythematous: Affected/At Risk (%)” value was 1/16 (6.25%). For the same compound, the “Rash maculo-papular: # Events” value was 0, the “Rash maculo-papular: Affected/At Risk (%)” value was 0/16 (0%) and the “Rash pustular: # Events” value was 1. For the same compound, the “Rash pustular: Affected/At Risk (%)” value was 1/16 (6.25%), the “Rash: # Events” value was 1 and the “Rash: Affected/At Risk (%)” value was 1/16 (6.25%). For the same compound, the “Red blood cells urine positive: # Events” value was 1, the “Red blood cells urine positive: Affected/At Risk (%)” value was 1/16 (6.25%) and the “Renal failure: # Events” value was 1. The “Renal failure: Affected/At Risk (%)” value was 1/16 (6.25%), the “Respiratory syncytial virus infection: # Events” value was 1 and the “Respiratory syncytial virus infection: Affected/At Risk (%)” value was 1/16 (6.25%). The “Respiratory tract infection fungal: # Events” value was 0, the “Respiratory tract infection fungal: Affected/At Risk (%)” value was 0/16 (0%) and the “Respiratory tract infection: # Events” value was 0. For the same compound, the “Respiratory tract infection: Affected/At Risk (%)” value was 0/16 (0%), the “Restless legs syndrome: # Events” value was 1 and the “Restless legs syndrome: Affected/At Risk (%)” value was 1/16 (6.25%). The “Rosacea: # Events” value was 1, the “Rosacea: Affected/At Risk (%)” value was 1/16 (6.25%) and the “SAE, No. (%)” value was 6 (38). The “Sinus pain: # Events” value was 0, the “Sinus pain: Affected/At Risk (%)” value was 0/16 (0%) and the “Sinusitis: # Events” value was 4. For the same compound, the “Sinusitis: Affected/At Risk (%)” value was 2/16 (12.5%), the “Skin abrasion: # Events” value was 0 and the “Skin abrasion: Affected/At Risk (%)” value was 0/16 (0%). The “Skin lesion: # Events” value was 1, the “Skin lesion: Affected/At Risk (%)” value was 1/16 (6.25%) and the “Skin papilloma: # Events” value was 0. For the same compound, the “Skin papilloma: Affected/At Risk (%)” value was 0/16 (0%), the “Spinal compression fracture: # Events” value was 0 and the “Spinal compression fracture: Affected/At Risk (%)” value was 0/16 (0%). The “Squamous cell carcinoma of skin: # Events” value was 2, the “Squamous cell carcinoma of skin: Affected/At Risk (%)” value was 2/16 (12.5%) and the “Stomatitis: # Events” value was 1. For the same compound, the “Stomatitis: Affected/At Risk (%)” value was 1/16 (6.25%), the “Superior vena cava syndrome: # Events” value was 2 and the “Superior vena cava syndrome: Affected/At Risk (%)” value was 1/16 (6.25%). The “TEAE, participants (%)” value was 16 (100%) participants, the “TESAE, participants (%)” value was 6 (38%) participants and the “Tachycardia: # Events” value was 0. The “Tachycardia: Affected/At Risk (%)” value was 0/16 (0%), the “Tendonitis: # Events” value was 1 and the “Tendonitis: Affected/At Risk (%)” value was 1/16 (6.25%). The “Testicular pain: # Events” value was 0, the “Testicular pain: Affected/At Risk (%)” value was 0/16 (0%) and the “Testicular swelling: # Events” value was 0. The “Testicular swelling: Affected/At Risk (%)” value was 0/16 (0%), the “Thoracic spinal stenosis: # Events” value was 0 and the “Thoracic spinal stenosis: Affected/At Risk (%)” value was 0/16 (0%). The “Thrombocytopenia: # Events” value was 1, the “Thrombocytopenia: Affected/At Risk (%)” value was 1/16 (6.25%) and the “Thrombocytosis: # Events” value was 0. For the same compound, the “Thrombocytosis: Affected/At Risk (%)” value was 0/16 (0%), the “Tinea pedis: # Events” value was 1 and the “Tinea pedis: Affected/At Risk (%)” value was 1/16 (6.25%). For the same compound, the “Tooth fracture: # Events” value was 1, the “Tooth fracture: Affected/At Risk (%)” value was 1/16 (6.25%) and the “Total other adverse events: Affected/At Risk (%)” value was 16/16 (100%). For the same compound, the “Transfusion reaction: # Events” value was 0, the “Transfusion reaction: Affected/At Risk (%)” value was 0/16 (0%) and the “Tremor: # Events” value was 2. For the same compound, the “Tremor: Affected/At Risk (%)” value was 1/16 (6.25%), the “Type 2 diabetes mellitus: # Events” value was 0 and the “Type 2 diabetes mellitus: Affected/At Risk (%)” value was 0/16 (0%). The “Ulcerative keratitis: # Events” value was 1, the “Ulcerative keratitis: Affected/At Risk (%)” value was 1/16 (6.25%) and the “Upper respiratory tract infection: # Events” value was 13. The “Upper respiratory tract infection: Affected/At Risk (%)” value was 9/16 (56.25%), the “Upper-airway cough syndrome: # Events” value was 2 and the “Upper-airway cough syndrome: Affected/At Risk (%)” value was 2/16 (12.5%). For the same compound, the “Urinary retention: # Events” value was 2.
